According to ChEMBL document CHEMBL3797052 (Eur J Med Chem, 2016):

Assays:
Type in all cases: functional
[1] = system: NCI-H460; assay: Antiproliferative activity against human NCI-H460 cells assessed as growth inhibition after 48 hrs by sulforhodamine B assay; details: NCI-H460, 48 h
[2] = system: CCRF-CEM; assay: Antiproliferative activity against human CCRF-CEM cells assessed as growth inhibition after 48 hrs by sulforhodamine B assay; details: for CC50: read-out: LC50 (the source's name)
[3] = system: SR; assay: Antiproliferative activity against human SR cells assessed as growth inhibition after 48 hrs by sulforhodamine B assay
[4] = Antiproliferative activity against human UACC257 cells assessed as growth inhibition after 48 hrs by sulforhodamine B assay; details: UACC-257, 48 h; for CC50: read-out: LC50 (the source's name)
[5] = system: U-251; assay: Antiproliferative activity against human U251 cells assessed as growth inhibition after 48 hrs by sulforhodamine B assay; details: U-251, 48 h
[6] = system: MDA-MB-435; assay: Antiproliferative activity against human MDA-MB-435 cells assessed as growth inhibition after 48 hrs by sulforhodamine B assay; details: MDA-MB-435, 48 h; for CC50: read-out: LC50 (the source's name)
[7] = system: Malme-3M; assay: Antiproliferative activity against human MALME-3M cells assessed as growth inhibition after 48 hrs by sulforhodamine B assay; details: for CC50: read-out: LC50 (the source's name)
[8] = Antiproliferative activity against human HOP62 cells assessed as cell growth at 10^-6 M after 48 hrs by sulforhodamine B assay; details: HOP-62, 48 h, read-out: Activity
[9] = system: SR; assay: Antiproliferative activity against human SR cells assessed as cell growth at 10^-7 M after 48 hrs by sulforhodamine B assay; details: read-out: Activity
[10] = system: HT-29; assay: Antiproliferative activity against human HT-29 cells assessed as cell growth at 10^-6 M after 48 hrs by sulforhodamine B assay; details: HT-29, 48 h, read-out: Activity
[11] = system: KM12; assay: Antiproliferative activity against human KM12 cells assessed as cell growth at 10^-6 M after 48 hrs by sulforhodamine B assay; details: KM12, 48 h, read-out: Activity
[12] = Antiproliferative activity against human SF295 cells assessed as cell growth at 10^-7 M after 48 hrs by sulforhodamine B assay; details: SF-295, 48 h, read-out: Activity
[13] = system: T47D; assay: Antiproliferative activity against human T47D cells assessed as cell growth at 10^-6 M after 48 hrs by sulforhodamine B assay; details: read-out: Activity
[14] = system: Malme-3M; assay: Antiproliferative activity against human MALME-3M cells assessed as cell growth at 10^-7 M after 48 hrs by sulforhodamine B assay; details: read-out: Activity
[15] = system: U-251; assay: Antiproliferative activity against human U251 cells assessed as cell growth at 10^-7 M after 48 hrs by sulforhodamine B assay; details: U-251, 48 h, read-out: Activity
[16] = system: U-251; assay: Antiproliferative activity against human U251 cells assessed as cell growth at 10^-8 M after 48 hrs by sulforhodamine B assay; details: U-251, 48 h, read-out: Activity
[17] = system: NCI-H23; assay: Antiproliferative activity against human NCI-H23 cells assessed as cell growth at 10^-6 M after 48 hrs by sulforhodamine B assay; details: NCI-H23, 48 h, read-out: Activity
[18] = system: A549; assay: Antiproliferative activity against human A549/ATCC cells assessed as cell growth at […] after 48 hrs by sulforhodamine B assay; details: A549, 48 h, read-out: Activity
[19] = system: NCI-H460; assay: Antiproliferative activity against human NCI-H460 cells assessed as cell growth at 10^-7 M after 48 hrs by sulforhodamine B assay; details: NCI-H460, 48 h, read-out: Activity
[20] = Antiproliferative activity against human UO31 cells assessed as cell growth at 10^-7 M after 48 hrs by sulforhodamine B assay; details: UO-31, 48 h, read-out: Activity
[21] = Antiproliferative activity against human NCI-ADR-RES cells assessed as cell growth at 10^-4 M after 48 hrs by sulforhodamine B assay; details: read-out: Activity
[22] = Antiproliferative activity against human PC3 cells assessed as cell growth at 10^-7 M after 48 hrs by sulforhodamine B assay; details: PC-3, 48 h, read-out: Activity
[23] = system: 786-0; assay: Antiproliferative activity against human 786-0 cells assessed as cell growth at 10^-6 M after 48 hrs by sulforhodamine B assay; details: 786-0, 48 h, read-out: Activity
[24] = Antiproliferative activity against human OVCAR3 cells assessed as cell growth at 10^-8 M after 48 hrs by sulforhodamine B assay; details: OVCAR-3, 48 h, read-out: Activity
[25] = Antiproliferative activity against human PC3 cells assessed as cell growth at 10^-4 M after 48 hrs by sulforhodamine B assay; details: PC-3, 48 h, read-out: Activity
[26] = Antiproliferative activity against human HCT15 cells assessed as cell growth at 10^-4 M after 48 hrs by sulforhodamine B assay; details: HCT-15, 48 h, read-out: Activity
[27] = system: SN12C; assay: Antiproliferative activity against human SN12C cells assessed as cell growth at 10^-8 M after 48 hrs by sulforhodamine B assay; details: read-out: Activity
[28] = Antiproliferative activity against human COLO205 cells assessed as cell growth at 10^-6 M after 48 hrs by sulforhodamine B assay; details: COLO 205, 48 h, read-out: Activity
[29] = Antiproliferative activity against human Caki1 cells assessed as cell growth at 10^-6 M after 48 hrs by sulforhodamine B assay; details: CAKI-1, 48 h, read-out: Activity
[30] = system: NCI-H322M; assay: Antiproliferative activity against human NCI-H322M cells assessed as cell growth at 10^-4 M after 48 hrs by sulforhodamine B assay; details: read-out: Activity
[31] = system: T47D; assay: Antiproliferative activity against human T47D cells assessed as cell growth at 10^-8 M after 48 hrs by sulforhodamine B assay; details: read-out: Activity
[32] = Antiproliferative activity against human UO31 cells assessed as cell growth at 10^-8 M after 48 hrs by sulforhodamine B assay; details: UO-31, 48 h, read-out: Activity
[33] = system: NCI-H226; assay: Antiproliferative activity against human NCI-H226 cells assessed as cell growth at 10^-4 M after 48 hrs by sulforhodamine B assay; details: NCI-H226, 48 h, read-out: Activity
[34] = system: MDA-MB-468; assay: Antiproliferative activity against human MDA-MB-468 cells assessed as cell growth at […] after 48 hrs by sulforhodamine B assay; details: MDA-MB-468, 48 h, read-out: Activity
[35] = Antiproliferative activity against human OVCAR4 cells assessed as cell growth at 10^-4 M after 48 hrs by sulforhodamine B assay; details: OVCAR-4, 48 h, read-out: Activity
[36] = system: EKVX; assay: Antiproliferative activity against human EKVX cells assessed as cell growth at 10^-7 M after 48 hrs by sulforhodamine B assay; details: read-out: Activity

## CNC(=O)c1cc(Oc2ccc(NC(=O)Nc3ccc(Cl)c(C(F)(F)F)c3)cc2)ccn1 [SORAFENIB]
[1]
  GI50: 2.51 µM
  TGI: 10 µM
[2]
  GI50: 2 µM
  TGI: 100 µM
  CC50: 100 µM
[3]
  GI50: 3.16 µM
  TGI: 100 µM
[4]
  GI50: 2 µM
  TGI: 5.01 µM
  CC50: 20 µM
[5]
  GI50: 2 µM
  TGI: 6.31 µM
[6]
  TGI: 3.98 µM
  CC50: 10 µM
[7]
  GI50: 2 µM
  TGI: 6.31 µM
  CC50: 63.1 µM

## CNC(=O)c1cc(Oc2ccc3nc(NC(=O)Nc4cc(C(F)(F)F)cc(C(F)(F)F)c4)sc3c2)ccn1
[8]
  growth at 1 µM: 58%
[9]
  growth at 0.1 µM: 91%
[10]
  growth at 1 µM: 61%
[11]
  growth at 1 µM: 25%
[1]
  GI50: 1.23 µM
  LC50 (concentration killing 50% of cells): 6.6 µM
  TGI: 2.85 µM
[12]
  growth at 0.1 µM: 92%
[13]
  growth at 1 µM: 32%
[2]
  GI50: 1.07 µM
  TGI: 5.83 µM
  CC50: > 100 µM
[14]
  growth at 0.1 µM: 90%
[15]
  growth at 0.1 µM: 106%
[16]
  growth at 0.01 µM: 103%
[17]
  growth at 1 µM: 36%
[18]
  growth at 0.1 µM: 109%
[3]
  GI50: 0.514 µM
  LC50: 31.6 µM
  TGI: 2.6 µM
[4]
  GI50: 1.15 µM
  TGI: 2.62 µM
  CC50: 5.95 µM
[19]
  growth at 0.1 µM: 108%
[5]
  GI50: 1.02 µM
  LC50: 4.78 µM
  TGI: 2.2 µM
[20]
  growth at 0.1 µM: 94%
[21]
  growth at 100 µM: -49%
[22]
  growth at 0.1 µM: 99%
[23]
  growth at 1 µM: 75%
[24]
  growth at 0.01 µM: 101%
[6]
  GI50: 1.04 µM
  TGI: 2.7 µM
  CC50: 6.99 µM
[7]
  GI50: 0.908 µM
  TGI: 2.49 µM
  CC50: 6.41 µM
[25]
  growth at 100 µM: -75%
[26]
  growth at 100 µM: -67%
[27]
  growth at 0.01 µM: 99%
[28]
  growth at 1 µM: 46%
[29]
  growth at 1 µM: 58%
[30]
  growth at 100 µM: -50%
[31]
  growth at 0.01 µM: 85%
[32]
  growth at 0.01 µM: 95%
[33]
  growth at 100 µM: -52%
[34]
  growth at 0.01 µM: 84%
[35]
  growth at 100 µM: -57%
[36]
  growth at 0.1 µM: 92%
